# Patent US9945845B2, “Methods of screening using amphibians” (priority 2009, dated 2018)
# Like-named read-outs stand apart in the source and are kept apart here.
# Tested on: Xenopus embryos
# Details: for Onset (NF) / Lethality (NF): 20 μM; for Type of edema Periocular: * = causing bulging eyes, # = bilateral, causing narrow-set eyes; for Type of edema Ventral: ‡ = edemas also detected in the gut; for Lethality: — = no stage of lethality given
# Description: 10-μl aliquots of the chemicals were transferred from the mother plates with a liquid handling robot (Aquarius, Tecan) into 96-well tissue culture plates to generate diluted stock plates (2 mM in DMSO; 50 μl final volume). […] Once embryos reached stage 31 (37 hpf), 10-μl aliquots of the diluted chemicals were added to the wells. […] Negative control wells contained embryos in screening medium and 0.1×MMR only. Embryos were treated with the chemicals in a humidified incubator at 23° C. over a timeframe of 4 days. Embryos were manually scored for the presence of edema or other morphological phenotypes using a teaching dissecting microscope (SV6; Carl Zeiss). Two investigators performed separately the scoring daily at stages 39 (56 hpf), 41 (76 hpf), 45 (98 hpf), and 47 (120 hpf). Dead embryos were removed and 100 μl of water was added daily to each well to compensate for fluid evaporation. […] For imaging at the end of the experiments. Xenopus tadpoles were anesthetized with 0.05% tricaine (Sigma #A5040) in 0.1×MMR. Images were captured using a stereomicroscope (SteREO Lumar V12; Carl Zeiss) equipped with a digital camera (AxioCam Color; Carl Zeiss).
# Xenopus late tailbud embryos at stage 31 (37 hpf) were selected for compound treatment. […] Embryos were arrayed into 48-well dishes (five per well) and treated with test compounds at a concentration of 20 μM in the presence of 1% DMSO. […] All 48-well dishes also contained replicates of negative controls (1% DMSO). Embryos were monitored daily over a period of four days for edema formation. In addition, drug-induced lethality and other externally visible phenotypes were scored. On average, 320 compounds were screened per week.
# [1] = onset of pigmentation defects, 1% DMSO
# [2] = compounds causing cytotoxicity, 1% DMSO, treatment from stage 31, Nieuwkoop & Faber stage
# [3] = onset of edema, 1% DMSO, treatment from stage 31, Nieuwkoop & Faber stage
# [4] = compounds causing edema, 1% DMSO, treatment from stage 31, scored to stage 47
# [5] = compounds causing pigmentation defects, scored to stage 47
# [6] = compounds causing lethality, 1% DMSO, treatment from stage 31, Nieuwkoop & Faber stage
molecule,measurement,setting,value
S=C(Nc1ccccc1)Nc1nccs1 [1-Phenyl-3-(2-thiazolyl)-2-thiourea],Onset (NF),[1],33/34
"C[n+]1cc2c3c(ccc2c2ccc4cc5c(cc4c21)OCO5)OCO3.[Cl-] [Sanguinarine chloride, 13-Methyl-[1,3]benzodioxolo[5,6-c]-1,3-dioxolo[4,5-i]phenanthridinium chloride]",Lethality (NF),[2],32 NF
CCCCCCCCCCCCCC(=O)O[C@@H]1[C@@H](C)[C@@]2(O)[C@@H](C=C(CO)C[C@]3(O)C(=O)C(C)=C[C@@H]23)[C@@H]2C(C)(C)[C@]12OC(C)=O [Phorbol 12-myristate 13-acetate],Lethality (NF),[2],32 NF
"Cl.Cl.Fc1ccc(C(OCCN2CCN(CCCc3ccccc3)CC2)c2ccc(F)cc2)cc1 [GBR-12909 dihydrochloride, 1-[2-[bis(4-Fluorophenyl)methoxy]ethyl]-4-[3-phenylpropyl]piperazine dihydrochloride]",Type of edema Pronephric,embryonic stage,45 embryonic stages according to Nieuwkoop and Faber (NF)
same,Type of edema Periocular,embryonic stage,45 embryonic stages according to Nieuwkoop and Faber (NF)
same,Type of edema Ventral,embryonic stage,45 embryonic stages according to Nieuwkoop and Faber (NF)
"CS(=O)(=O)O.Cc1c(C(=O)c2cccc3ccccc23)c2cccc3c2n1[C@H](CN1CCOCC1)CO3 [(R)-(+)-WIN 55,212-2 mesylate, (R)-(+)-[2,3-Dihydro-5-methyl-3[(morpholinyl)methyl]pyrrolo[1,2,3-de]-1,4-benzoxazinyl]-(1-naphthalenyl)methanone mesylate]",Lethality (NF),[2],32 NF
C=C(C)[C@H]1Cc2c(ccc3c2O[C@@H]2COc4cc(OC)c(OC)cc4[C@@H]2C3=O)O1 [Rotenone],Lethality (NF),[2],32 NF
CC(C)(Sc1ccc(CCN(CCCCC2CCCCC2)C(=O)NC2CCCCC2)cc1)C(=O)O [GW7647],Lethality (NF),[2],32 NF
"COc1cc2nc(N3CCN(C(=O)OCc4ccccc4)[C@H](C(=O)NC(C)(C)C)C3)nc(N)c2cc1OC [L-765,314, (2S)-4-(4-Amino-6,7-dimethoxy-2-quinazolinyl)-2-[[(1,1-Dimethylethyl)amino]carbonyl]-1-piperazinecarboxylic acid, phenylmethyl ester]",Type of edema Periocular,embryonic stage,41/42 #
same,Type of edema Ventral,embryonic stage,45 embryonic stages according to Nieuwkoop and Faber (NF)
same,Onset (NF),[3],41/42
R(-)-Propylnorapomorphine hydrochloride,Onset (NF),[1],33/34
"Cc1ccc(Cl)c(Nc2ccccc2C(=O)O)c1Cl.[Na] [Meclofenamic acid sodium, 2-([2,6-Dichloro-3-methylphenyl]amino)benzoic acid sodium]",Lethality (NF),[4],41/42
same,Type of edema Pericordial,embryonic stage,35/36
same,Lethality,embryonic stage,41/42
same,Onset (NF),[3],35/36
C=C[C@@]1(C)CC(=O)[C@]2(O)[C@@]3(C)[C@@H](O)CCC(C)(C)[C@@H]3[C@H](O)[C@H](OC(C)=O)[C@@]2(C)O1 [Forskolin],Lethality (NF),[4],41/42
same,Type of edema Pericordial,embryonic stage,39 embryonic stages according to Nieuwkoop and Faber (NF)
same,Type of edema Proctodeal,embryonic stage,39 embryonic stages according to Nieuwkoop and Faber (NF)
same,Lethality,embryonic stage,41/42
same,Type of edema Ventral,embryonic stage,39 embryonic stages according to Nieuwkoop and Faber (NF)
same,Onset (NF),[3],39/40
O=c1[nH]c2ccccc2n1C1CCN(CCCC(c2ccc(F)cc2)c2ccc(F)cc2)CC1 [Pimozide],Lethality (NF),[4],45 NF
same,Type of edema Pericordial,embryonic stage,41/42
same,Type of edema Pronephric,embryonic stage,41/42
same,Lethality,embryonic stage,45 embryonic stages according to Nieuwkoop and Faber (NF)
same,Type of edema Ventral,embryonic stage,41/42
same,Onset (NF),[3],41/42
"C#C[C@]1(O)CC[C@H]2[C@@H]3CCC4=Cc5nc6nc7ccccc7n6cc5C[C@]4(C)[C@H]3CC[C@@]21C [WIN 62,577, 17-beta-Hydroxy-17-alpha-ethynyl-delta-4-androstano(3,2-b)pyrimido(1,2-a)benzimidazole]",Lethality (NF),[5],42 NF
same,Onset (NF),[1],33/34
O=C(O)c1cc([N+](=O)[O-])ccc1NCCCc1ccccc1 [5-Nitro-2-(3-phenylpropylamino)benzoic acid],Lethality (NF),[2],32 NF
CCCCCCCCCCCCCCCC(=O)OC(CC(=O)O)C[N+](C)(C)C.[Cl-] (racemic) [Palmitoyl-DL-Carnitine chloride],Lethality (NF),[2],32 NF
O=C1NCN(c2ccccc2)C12CCN(CCCC(c1ccc(F)cc1)c1ccc(F)cc1)CC2 [Fluspirilene],Lethality (NF),[2],32 NF
CC[C@@]1(O)C(=O)OCc2c1cc1n(c2=O)Cc2cc3ccccc3nc2-1 [(S)-(+)-Camptothecin],Lethality (NF),"compounds causing other phenotypic defects, scored to stage 47",41/42
same,Onset (NF),"onset of other phenotypic defects, 1% DMSO",39 NF
"CCn1cc(C(=O)O)c(=O)c2ccc(Cc3ccccc3)nc21 [Amfonelic acid, 7-Benzyl-1-ethyl-1,4-dihydro-4-oxo-1,8-naphthyridine-3-carboxylic acid]",Onset (NF),[1],33/34
CC(C)=CCCC(C)=CCCC(C)=CCSc1ccccc1C(=O)O [Farnesylthiosalicylic acid],Lethality (NF),[2],32 NF
"O=C(O)c1ccccc1Nc1cccc(OCc2ccc3ccccc3n2)c1 [SR 2640, 2-[[3-(2-Quinolinylmethoxy)phenyl]amino]-benzoic acid]",Lethality (NF),[2],32 NF
CC1=C(/C=C/C(C)=C/C=C/C(C)=C\C(=O)O)C(C)(C)CCC1 [13-cis-retinoic acid],Lethality (NF),[4],46 NF
same,Type of edema Pronephric,embryonic stage,45 embryonic stages according to Nieuwkoop and Faber (NF)
same,Type of edema Cerebral,"embryonic stage, + = cerebral edema extending dorso-anteriorly and displacing the eyes",45+ embryonic stages according to Nieuwkoop and Faber (NF)
same,Lethality,embryonic stage,46 embryonic stages according to Nieuwkoop and Faber (NF)
same,Type of edema Ventral,embryonic stage,41/42
same,Onset (NF),[3],41/42
"Nc1nc2ccc(OC(F)(F)F)cc2s1 [Riluzole, 2-Amino-6-(trifluoromethoxy)-benzothiazole]",Type of edema Pronephric,embryonic stage,45 embryonic stages according to Nieuwkoop and Faber (NF)
same,Type of edema Periocular,embryonic stage,45 embryonic stages according to Nieuwkoop and Faber (NF)
same,Type of edema Ventral,embryonic stage,45 embryonic stages according to Nieuwkoop and Faber (NF)
"O=c1[nH]c2ccccc2c2ccccc12 [6(5H-Phenanthridinone, 6(5H)-Phenanthridinone]",Lethality (NF),[4],47 NF
same,Type of edema Pericordial,embryonic stage,45 embryonic stages according to Nieuwkoop and Faber (NF)
same,Type of edema Periocular,embryonic stage,45 embryonic stages according to Nieuwkoop and Faber (NF)
same,Lethality,embryonic stage,47 embryonic stages according to Nieuwkoop and Faber (NF)
same,Type of edema Ventral,embryonic stage,45 embryonic stages according to Nieuwkoop and Faber (NF)
"CC(C)(C)c1cc(C=C(C#N)C(N)=S)cc(C(C)(C)C)c1O [Tyrphostin AG 879, alpha-cyano-(3,5-di-t-butyl-4-hydroxy)thiocinnamide]",Lethality (NF),[2],32 NF
CCCCCCCCCCCCCCCC(=O)NCC(COP(=O)([O-])OCC[N+](C)(C)C)OCC (racemic) [rac-2-Ethoxy-3-hexadecanamido-1-propylphosphocholine],Lethality (NF),[2],32 NF
"CC(C)(C)c1cc(C=C(C#N)C#N)cc(C(C)(C)C)c1O [Tyrphostin A9, [[3,5-bis(1,1-Dimethylethyl)-4-hydroxyphenyl]methylene]-propanedinitrile]",Lethality (NF),[2],32 NF
CNc1ccc2oc(C[C@H]3O[C@@]4(CC[C@H]3C)O[C@H]([C@H](C)C(=O)c3ccc[nH]3)[C@H](C)C[C@H]4C)nc2c1C(=O)O [Calcimycin],Lethality (NF),[2],32 NF
C[C@@]12C(=O)OC(=O)[C@]1(C)[C@H]1CC[C@@H]2O1 [Cantharidin],Lethality (NF),[2],32 NF
CCCCCCCCCCCCCCCCCC(=O)OC(CC(=O)O)C[N+](C)(C)C.[Cl-] (racemic) [DL-Stearoylcarnitine chloride],Lethality (NF),[6],41 NF
"CC[C@@H]1Cc2cc(O)ccc2C2=C1c1ccc(O)cc1C[C@H]2CC [(5R, 11R)-5,11-Diethyl-5,6,11,12-tetrahydro-2,8-chrysenediol]",Lethality (NF),[6],41 NF
O=C(O)CCCCC1CCSS1 (racemic) [(±)-alpha-Lipoic Acid],Type of edema Pericordial,embryonic stage,39 embryonic stages according to Nieuwkoop and Faber (NF)
same,Type of edema Pronephric,embryonic stage,42 embryonic stages according to Nieuwkoop and Faber (NF)
"O=c1c2ccccc2[se]n1-c1ccccc1 [Ebselen, 2-Phenyl-1,2-benzisoselenazol-3(2H)-one]",Lethality (NF),[2],32 NF
COC(=O)C1=C(C)NC(C)=C(C(=O)OC)C1c1ccccc1[N+](=O)[O-] [Nifedipine],Type of edema Pericordial,embryonic stage,41/42
same,Type of edema Periocular,embryonic stage,41/42
same,Type of edema Ventral,embryonic stage,45 embryonic stages according to Nieuwkoop and Faber (NF)
same,Onset (NF),[3],41/42
Br.C=CCN1CCc2cccc3c2[C@H]1Cc1ccc(O)c(O)c1-3 [R(-)-N-Allylnorapomorphine hydrobromide],Lethality (NF),[5],40 NF
same,Onset (NF),[1],33/34
"COC[C@H]1OC(=O)c2coc3c2[C@@]1(C)C1=C(C3=O)[C@@H]2CCC(=O)[C@@]2(C)C[C@H]1OC(C)=O [Wortmannin from Penicillium funiculosum, Wortmannin]",Lethality (NF),[2],33/34
